Laboratory results published in patent publication US8791102B2, “Acetanilide sphingosine-1-phosphate receptor antagonists” (Exelixis, Inc., priority 2008, dated 2014).

target: T1, human S1P1 receptors (Homo sapiens, UniProt P21453); assay: S1P1R antagonist assay (fluorescent membrane potential dye, cAMP readout); type: cell-based; conditions: HEK293 cells expressing human S1P1 receptors and CNG channel; 500 nM NECA; S1P1R agonist 10 nM; 90 minutes; read-out: EC50 or IC50 value
T1 construct: host or cells: HEK293
T1 sequence (P21453 whole entry): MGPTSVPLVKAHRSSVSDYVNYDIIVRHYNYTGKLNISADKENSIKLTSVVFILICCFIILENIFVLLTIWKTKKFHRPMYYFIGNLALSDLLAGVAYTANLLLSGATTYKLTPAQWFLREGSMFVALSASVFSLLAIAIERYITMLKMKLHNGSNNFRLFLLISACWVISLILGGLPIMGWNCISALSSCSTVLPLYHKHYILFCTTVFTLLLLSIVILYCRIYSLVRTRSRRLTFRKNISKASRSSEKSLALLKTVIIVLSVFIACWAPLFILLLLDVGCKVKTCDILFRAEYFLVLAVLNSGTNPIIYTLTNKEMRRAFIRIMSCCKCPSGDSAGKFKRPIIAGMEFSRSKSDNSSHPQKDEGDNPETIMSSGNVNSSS

`CC(=O)c1ccc(OCC(=O)NC(COCc2ccccc2)C(=O)Nc2ccc(Oc3ccccc3)cc2)cc1` (stereo not shown) [Compound 319, N-(2-oxo-1-{[(phenylmethyl)oxy]methyl}-2-{[4-(phenyloxy)phenyl]amino}ethyl)-4-acetylphenoxyacetamide] and `CCOc1ccc(CC(=O)NC(COCc2ccccc2)C(=O)Nc2ccc(Oc3ccccc3)cc2)cc1` (stereo not shown) [Compound 343, N-(2-oxo-1-{[(phenylmethyl)oxy]methyl}-2-{[4-(phenyloxy)phenyl]amino}ethyl)-2-(4-ethoxyphenyl)acetamide] cannot be ordered by IC50: over 1 µM for the first, over 1 µM for the second.

First: COc1ccc(CCCC(=O)NC(COCc2ccccc2)C(=O)Nc2ccc(Oc3ccccc3)cc2)cc1OC (stereo not shown) [Compound 320, 4-[3,4-bis(methyloxy)phenyl]-N-(2-oxo-1-{[(phenylmethyl)oxy]methyl}-2-{[4-(phenyloxy)phenyl]amino}ethyl)butanamide]
Second: COc1ccc(OC)c(C(=O)NC(COCc2ccccc2)C(=O)Nc2ccc(Oc3ccccc3)cc2)c1 (stereo not shown) [Compound 332, 2,5-bis(methyloxy)-N-(2-oxo-1-{[(phenylmethyl)oxy]methyl}-2-{[4-(phenyloxy)phenyl]amino}ethyl)benzamide]
The IC50 of the first is higher: over 1 µM for the first, 0.3 to 1 µM for the second.

`O=C(NC(COCc1ccccc1)C(=O)Nc1ccc(Oc2ccccc2)cc1)c1ccc(-c2cccc(C(F)(F)F)c2)o1` (stereo not shown) [Compound 321, N-(2-oxo-1-{[(phenylmethyl)oxy]methyl}-2-{[4-(phenyloxy)phenyl]amino}ethyl)-5-[3-(trifluoromethyl)phenyl]furan-2-carboxamide] and `O=C(NC(COCc1ccccc1)C(=O)Nc1ccc(Oc2ccccc2)cc1)c1ccc(F)cc1C(F)(F)F` (stereo not shown) [Compound 330, 4-fluoro-N-(2-oxo-1-{[(phenylmethyl)oxy]methyl}-2-{[4-(phenyloxy)phenyl]amino}ethyl)-2-(trifluoromethyl)benzamide] cannot be ordered by IC50: over 1 µM for the first, over 1 µM for the second.

`O=C(CCN1C(=O)c2ccccc2C1=O)NC(COCc1ccccc1)C(=O)Nc1ccc(Oc2ccccc2)cc1` (stereo not shown) [Compound 322, N-(2-oxo-1-{[(phenylmethyl)oxy]methyl}-2-{[4-(phenyloxy)phenyl]amino}ethyl)-3-(1,3-dioxoisoindolin-2-yl)propanamide] and `O=C(NC(COCc1ccccc1)C(=O)Nc1ccc(Oc2ccccc2)cc1)C(=O)c1ccccc1` (stereo not shown) [Compound 324, N-(2-oxo-1-{[(phenylmethyl)oxy]methyl}-2-{[4-(phenyloxy)phenyl]amino}ethyl)-2-oxo-2-phenylacetamide] cannot be ordered by IC50: over 1 µM for the first, over 1 µM for the second.

`O=C(CCCC(=O)c1cccs1)NC(COCc1ccccc1)C(=O)Nc1ccc(Oc2ccccc2)cc1` (stereo not shown) [Compound 323, 5-oxo-N-(2-oxo-1-{[(phenylmethyl)oxy]methyl}-2-{[4-(phenyloxy)phenyl]amino}ethyl)-5-(2-thienyl)pentanamide] and `O=C(CCCc1cccs1)NC(COCc1ccccc1)C(=O)Nc1ccc(Oc2ccccc2)cc1` (stereo not shown) [Compound 325, N-(2-oxo-1-{[(phenylmethyl)oxy]methyl}-2-{[4-(phenyloxy)phenyl]amino}ethyl)-4-(2-thienyl)butanamide] fall in the same range of IC50: 0.3 to 1 µM for the first, 0.3 to 1 µM for the second.

Going from `O=C(NC(COCc1ccccc1)C(=O)Nc1ccc(Oc2ccccc2)cc1)c1ccc([N+](=O)[O-])o1` (stereo not shown) [Compound 326, 5-nitro-N-(2-oxo-1-{[(phenylmethyl)oxy]methyl}-2-{[4-(phenyloxy)phenyl]amino}ethyl)furan-2-carboxamide] to `CS(=O)(=O)c1ccc(C(=O)NC(COCc2ccccc2)C(=O)Nc2ccc(Oc3ccccc3)cc2)cc1` (stereo not shown) [Compound 333, 4-(methylsulfonyl)-N-(2-oxo-1-{[(phenylmethyl)oxy]methyl}-2-{[4-(phenyloxy)phenyl]amino}ethyl)benzamide], the IC50 rises from at most 0.3 µM to over 1 µM. The first is the more potent here.

First: CC/C=C/CC(=O)NC(COCc1ccccc1)C(=O)Nc1ccc(Oc2ccccc2)cc1 (stereo not shown) [Compound 327]
Second: CCOCC(=O)NC(COCc1ccccc1)C(=O)Nc1ccc(Oc2ccccc2)cc1 (stereo not shown) [Compound 338, N-(2-oxo-1-{[(phenylmethyl)oxy]methyl}-2-{[4-(phenyloxy)phenyl]amino}ethyl)-2-ethoxyacetamide]
The IC50 of the first is lower: 0.3 to 1 µM for the first, over 1 µM for the second.

`O=C(Cc1ccc2c(c1)OCO2)NC(COCc1ccccc1)C(=O)Nc1ccc(Oc2ccccc2)cc1` (stereo not shown) [Compound 328, N-(2-oxo-1-{[(phenylmethyl)oxy]methyl}-2-{[4-(phenyloxy)phenyl]amino}ethyl)-1,3-benzodioxol-5-ylacetamide] and `COCCC(=O)NC(COCc1ccccc1)C(=O)Nc1ccc(Oc2ccccc2)cc1` (stereo not shown) [Compound 337, N-(2-oxo-1-{[(phenylmethyl)oxy]methyl}-2-{[4-(phenyloxy)phenyl]amino}ethyl)-3-methoxypropanamide] cannot be ordered by IC50: over 1 µM for the first, over 1 µM for the second.

`O=C(Nc1ccc(Oc2ccccc2)cc1)C(COCc1ccccc1)NC(=O)C1(c2c(F)cccc2Cl)CCCC1` (stereo not shown) [Compound 329, 1-(2-chloro-6-fluorophenyl)-N-(2-oxo-1-{[(phenylmethyl)oxy]methyl}-2-{[4-(phenyloxy)phenyl]amino}ethyl)cyclopentanecarboxamide] and `CS(=O)(=O)c1ccc(C(=O)NC(COCc2ccccc2)C(=O)Nc2ccc(Oc3ccccc3)cc2)c(Cl)c1` (stereo not shown) [Compound 334, 2-chloro-4-(methylsulfonyl)-N-(2-oxo-1-{[(phenylmethyl)oxy]methyl}-2-{[4-(phenyloxy)phenyl]amino}ethyl)benzamide] cannot be ordered by IC50: over 1 µM for the first, over 1 µM for the second.

`O=C(CSc1ncccn1)NC(COCc1ccccc1)C(=O)Nc1ccc(Oc2ccccc2)cc1` (stereo not shown) [Compound 331, N-(2-oxo-1-{[(phenylmethyl)oxy]methyl}-2-{[4-(phenyloxy)phenyl]amino}ethyl)-2-(pyrimidin-2-ylthio)acetamide] and `O=C(CN1C(=O)CSC1=S)NC(COCc1ccccc1)C(=O)Nc1ccc(Oc2ccccc2)cc1` (stereo not shown) [Compound 335, N-(2-oxo-1-{[(phenylmethyl)oxy]methyl}-2-{[4-(phenyloxy)phenyl]amino}ethyl)-2-(4-oxo-2-thioxothiazolidin-3-yl)acetamide] cannot be ordered by IC50: over 1 µM for the first, over 1 µM for the second.

First: O=C(NC(COCc1ccccc1)C(=O)Nc1ccc(Oc2ccccc2)cc1)C1CCOC1 (stereo not shown) [Compound 336, N-(2-oxo-1-{[(phenylmethyl)oxy]methyl}-2-{[4-(phenyloxy)phenyl]amino}ethyl)tetrahydrofuran-3-carboxamide]
Second: CN(C)C(=O)CCC(=O)NC(COCc1ccccc1)C(=O)Nc1ccc(Oc2ccccc2)cc1 (stereo not shown) [Compound 339, N,N-dimethyl-N′-(2-oxo-1-{[(phenylmethyl)oxy]methyl}-2-{[4-(phenyloxy)phenyl]amino}ethyl)butanediamide]
The IC50 of the first is lower: at most 0.3 µM for the first, over 1 µM for the second.

First: CN(CC(=O)NC(COCc1ccccc1)C(=O)Nc1ccc(Oc2ccccc2)cc1)C(=O)c1ccccc1 (stereo not shown) [Compound 340, N-(2-oxo-1-{[(phenylmethyl)oxy]methyl}-2-{[4-(phenyloxy)phenyl]amino}ethyl)-N-benzoyl-N-methylaminoacetamide]
Second: O=C(NC(COCc1ccccc1)C(=O)Nc1ccc(Oc2ccccc2)cc1)c1c[nH]c2ccccc12 (stereo not shown) [Compound 341, N-(2-oxo-1-{[(phenylmethyl)oxy]methyl}-2-{[4-(phenyloxy)phenyl]amino}ethyl)-1H-indole-3-carboxamide]
The IC50 of the first is lower: 0.3 to 1 µM for the first, over 1 µM for the second. The first is the more potent here.

`O=C(NC(COCc1ccccc1)C(=O)Nc1ccc(Oc2ccccc2)cc1)c1ccc2[nH]cnc2c1` (stereo not shown) [Compound 342, N-(2-oxo-1-{[(phenylmethyl)oxy]methyl}-2-{[4-(phenyloxy)phenyl]amino}ethyl)-1H-benzimidazole-5-carboxamide] was tested, and the IC50 was over 1 µM.
